The source of these data is US20250215030A1, “STAT MODULATORS AND USES THEREOF” (Recludix Pharma, Inc., priority 2022, published 2025).

The target of assay [1] is T1, Recombinant STAT6 protein (STAT6(W123-T658)) (Homo sapiens, UniProt P42226).
T1 construct: STAT6(W123-T658)
T1 sequence (P42226 123-658): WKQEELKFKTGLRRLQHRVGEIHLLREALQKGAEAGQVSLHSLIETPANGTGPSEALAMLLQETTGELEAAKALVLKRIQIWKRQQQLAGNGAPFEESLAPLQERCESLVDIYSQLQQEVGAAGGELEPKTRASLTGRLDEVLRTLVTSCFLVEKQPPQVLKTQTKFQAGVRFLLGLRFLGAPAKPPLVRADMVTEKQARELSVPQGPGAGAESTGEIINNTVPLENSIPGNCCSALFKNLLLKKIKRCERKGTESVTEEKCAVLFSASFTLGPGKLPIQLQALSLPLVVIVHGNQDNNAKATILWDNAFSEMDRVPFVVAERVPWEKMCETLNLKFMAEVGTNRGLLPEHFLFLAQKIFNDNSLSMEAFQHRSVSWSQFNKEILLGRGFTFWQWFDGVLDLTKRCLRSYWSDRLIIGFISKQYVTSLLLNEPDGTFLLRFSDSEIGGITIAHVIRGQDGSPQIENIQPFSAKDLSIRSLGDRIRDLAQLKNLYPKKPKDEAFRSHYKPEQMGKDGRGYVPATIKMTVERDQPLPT
The assay is described as follows: STAT6 Fluorescence Polarization (FP) Assay. In kind it is binding. Particulars: STAT6(W123-T658) 250 nM, probe 5-FAM-ApYKPFQDLI-NH2 2 nM, 45-minute incubation. In short, it runs like this:
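Competitive displacement of a fluorescent phosphotyrosine peptide (2 nM) from recombinant STAT6 W123-T658 (250 nM), 45 min at room temperature in 10 mM HEPES pH 7.4, 50 mM NaCl, 2 mM DTT. mP fitted against log compound for IC50, grouped A (≤300 nM) to D (>30 μM).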
In general terms: Polarisation of emitted light reports the rotation of a fluorescent probe.

In assay [2] the target is T2, Recombinant STAT3 protein (STAT3(G127-I722)) (Homo sapiens, UniProt P40763).
T2 construct: STAT3(G127-I722)
The assay is described as follows: STAT3 Fluorescence Polarization (FP) Assay. In kind it is binding. Particulars: STAT3(G127-I722) 25 nM, probe 5-FAM-GpYLPQTV-NH2 2 nM, 45-minute incubation. The method, boiled down:
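Serially diluted compounds (1% DMSO) were mixed with 2 nM fluorescent phosphotyrosine peptide and 25 nM STAT3 construct G127-I722, pH 7.4, incubated 45 min at room temperature. IC50 values from fitted polarization curves are reported as categories A (≤100 nM), B, C, D (>10 μM).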

T2 sequence (P40763 127-722, species assumed): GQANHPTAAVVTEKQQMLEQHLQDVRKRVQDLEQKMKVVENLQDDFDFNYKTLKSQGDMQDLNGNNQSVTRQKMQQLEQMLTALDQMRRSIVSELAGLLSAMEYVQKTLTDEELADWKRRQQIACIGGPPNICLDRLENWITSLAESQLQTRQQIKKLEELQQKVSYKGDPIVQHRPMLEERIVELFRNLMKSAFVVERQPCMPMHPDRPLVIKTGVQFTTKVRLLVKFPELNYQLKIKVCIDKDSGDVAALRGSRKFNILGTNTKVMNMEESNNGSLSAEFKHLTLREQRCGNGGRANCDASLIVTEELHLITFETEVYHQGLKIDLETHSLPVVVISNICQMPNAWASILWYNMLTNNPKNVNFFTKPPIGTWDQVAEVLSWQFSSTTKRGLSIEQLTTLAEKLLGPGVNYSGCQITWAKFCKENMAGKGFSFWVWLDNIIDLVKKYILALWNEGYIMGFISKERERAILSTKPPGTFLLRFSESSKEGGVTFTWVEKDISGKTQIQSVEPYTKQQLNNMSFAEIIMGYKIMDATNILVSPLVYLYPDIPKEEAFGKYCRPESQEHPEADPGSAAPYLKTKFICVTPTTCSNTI

A word on the IC50: it is the concentration needed to halve the response being measured. Take `O=C(N[C@H]1C[C@@H]2C[C@@H]2C[C@H]2CC[C@@H](C(=O)N3CC(Cc4cccnc4)C3)N2C1=O)c1cc2cc(CP(=O)(O)O)ccc2s1` [Example 380, ((2-(((3S,6S,7aS,8aR,9aR)-5-oxo-3-(3-(pyridin-3-ylmethyl)azetidine-1-carbonyl)decahydro-1H-cyclopropa[d]pyrrolo[1,2-a]azocin-6-yl)carbamoyl)benzo[b]thiophen-5-yl)methyl)phosphonic acid]: the IC50 fell in the range of 3 to 30 µM in assay [1] and 0.1 to 1 µM in assay [2].
On to `CC(=O)N1CC(NC(=O)[C@@H]2CC[C@@H]3C[C@H]4C[C@H]4C[C@H](NC(=O)c4cc5cc(C(F)P(=O)(O)O)ccc5s4)C(=O)N32)C(F)(F)C1` (stereo partly drawn) [Example 358, ((2-(((3S,6S,7aS,8aR,9aR)-3-((1-acetyl-4,4-difluoropyrrolidin-3-yl)carbamoyl)-5-oxodecahydro-1H-cyclopropa[d]pyrrolo[1,2-a]azocin-6-yl)carbamoyl)benzo[b]thiophen-5-yl)fluoromethyl)phosphonic acid], for which the half-inhibitory concentration (IC50) in assay [1] lay within 3 to 30 µM; in assay [2] it was 0.1 to 1 µM.
For the molecule “((S)-fluoro(2-(((3S,6S,7aS,8aR,9aR)-3-(3-(morpholine-4-carbonyl)azetidine-1-carbonyl)-5-oxodecahydro-1H-cyclopropa[d]pyrrolo[1,2-a]azocin-6-yl)carbamoyl)benzo[b]thiophen-5-yl)methyl)phosphonic acid Or ((R)-fluoro(2-(((3S,6S,7aS,8aR,9aR)-3-(3-(morpholine-4-carbonyl)azetidine-1-carbonyl)-5-oxodecahydro-1H-cyclopropa[d]pyrrolo[1,2-a]azocin-6-yl)carbamoyl)benzo[b]thiophen-5-yl)methyl)phosphonic acid [Compound 34]”, the IC50 in assay [1] is above 30 µM; in assay [2], 0.1 to 1 µM.
For `CC12CC1C[C@H](NC(=O)c1cc3cc(C(F)(F)P(=O)(O)O)ccc3s1)C(=O)N1[C@H](CC[C@H]1C(=O)N1CC(c3cccnc3)C1)C2` (stereo in doubt) [Example 231, (difluoro(2-(((3S,6S,7aR,8aS,9aR)-8a-methyl-5-oxo-3-(3-(pyridin-3-yl)azetidine-1-carbonyl)decahydro-1H-cyclopropa[d]pyrrolo[1,2-a]azocin-6-yl)carbamoyl)benzo[b]thiophen-5-yl)methyl)phosphonic acid], the results for the IC50 in assay [1] and in assay [2] were 3 to 30 µM and below 0.1 µM, respectively.
On to `O=C(N[C@H]1C[C@@H]2C[C@@H]2C[C@H]2CC[C@@H](C(=O)N3CC(c4cnccc4F)C3)N2C1=O)c1cc2cc(C(F)P(=O)(O)O)ccc2s1` (stereo partly drawn) [Example 262, (fluoro(2-(((3S,6S,7aS,8aR,9aR)-3-(3-(4-fluoropyridin-3-yl)azetidine-1-carbonyl)-5-oxodecahydro-1H-cyclopropa[d]pyrrolo[1,2-a]azocin-6-yl)carbamoyl)benzo[b]thiophen-5-yl)methyl)phosphonic acid], for which the IC50 in assay [1] was 0.3 to 3 µM; in assay [2], below 0.1 µM.
The matching figures for `COc1ccncc1C1CN(C(=O)[C@@H]2CC[C@@H]3C[C@H]4C[C@H]4C[C@H](NC(=O)c4cc5cc(CP(=O)(O)O)ccc5s4)C(=O)N32)C1` [Example 265, ((2-(((3S,6S,7aS,8aR,9aR)-3-(3-(4-methoxypyridin-3-yl)azetidine-1-carbonyl)-5-oxodecahydro-1H-cyclopropa[d]pyrrolo[1,2-a]azocin-6-yl)carbamoyl)benzo[b]thiophen-5-yl)methyl)phosphonic acid]: above 30 µM and below 0.1 µM.
On to `O=C(N[C@H]1C[C@@H]2C[C@@H]2C[C@H]2CC[C@@H](C(=O)N3CC(C(=O)N4CCOCC4)C3)N2C1=O)c1cc2cc(C(F)P(=O)(O)O)ccc2s1` (stereo partly drawn) [Compound 18, (fluoro(2-(((3S,6S,7aS,8aR,9aR)-3-(3-(morpholine-4-carbonyl)azetidine-1-carbonyl)-5-oxodecahydro-1H-cyclopropa[d]pyrrolo[1,2-a]azocin-6-yl)carbamoyl)benzo[b]thiophen-5-yl)methyl)phosphonic acid], for which the figures for the half-inhibitory concentration (IC50) in assay [1] and in assay [2] were 3 to 30 µM and below 0.1 µM, respectively.
The like results for `CS(=N)(=O)CC1CN(C(=O)[C@@H]2CC[C@@H]3C[C@H]4C[C@H]4C[C@H](NC(=O)c4cc5cc(C(F)P(=O)(O)O)ccc5s4)C(=O)N32)C1` (stereo partly drawn) [Example 341, (fluoro(2-(((3S,6S,7aS,8aR,9aR)-3-(3-((S-methylsulfonimidoyl)methyl)azetidine-1-carbonyl)-5-oxodecahydro-1H-cyclopropa[d]pyrrolo[1,2-a]azocin-6-yl)carbamoyl)benzo[b]thiophen-5-yl)methyl)phosphonic acid] were, in that order, 3 to 30 µM and below 0.1 µM.
With `O=C(N[C@H]1C[C@@H]2C[C@@H]2C[C@H]2CC[C@@H](C(=O)N3CC(c4ccccc4)C3)N2C1=O)c1cc2cc(C(F)P(=O)(O)O)ccc2s1` (stereo partly drawn) [Example 390, (fluoro(2-(((3S,6S,7aS,8aR,9aR)-5-oxo-3-(3-phenylazetidine-1-carbonyl)decahydro-1H-cyclopropa[d]pyrrolo[1,2-a]azocin-6-yl)carbamoyl)benzo[b]thiophen-5-yl)methyl)phosphonic acid], the half-inhibitory concentration (IC50) in assay [1] is 3 to 30 µM; in assay [2] it was 0.1 to 1 µM.
The like results for `Cc1noc(C2CN(C(=O)[C@@H]3CC[C@@H]4C[C@H]5C[C@H]5C[C@H](NC(=O)c5cc6cc(C(F)P(=O)(O)O)ccc6s5)C(=O)N43)C2)n1` (stereo partly drawn) [Example 326, (fluoro(2-(((3S,6S,7aS,8aR,9aR)-3-(3-(3-methyl-1,2,4-oxadiazol-5-yl)azetidine-1-carbonyl)-5-oxodecahydro-1H-cyclopropa[d]pyrrolo[1,2-a]azocin-6-yl)carbamoyl)benzo[b]thiophen-5-yl)methyl)phosphonic acid] were, in that order, 3 to 30 µM and 0.1 to 1 µM.
Turning to `CC(C)C1(c2ccccc2)CN(C(=O)[C@@H]2CC[C@@H]3C[C@@H]4C[C@@H]4C[C@H](NC(=O)c4cc5cc(C(F)(F)P(=O)(O)O)ccc5s4)C(=O)N32)C1` [Compound 79, (difluoro(2-(((3S,6S,7aR,8aS,9aR)-3-(3-isopropyl-3-phenylazetidine-1-carbonyl)-5-oxodecahydro-1H-cyclopropa[d]pyrrolo[1,2-a]azocin-6-yl)carbamoyl)benzo[b]thiophen-5-yl)methyl)phosphonic acid], the IC50 in assay [1] is 3 to 30 µM; in assay [2], below 0.1 µM.
The matching figures for `CN(C)c1ccncc1C1CN(C(=O)[C@@H]2CC[C@@H]3C[C@H]4C[C@H]4C[C@H](NC(=O)c4cc5cc(C(F)(F)P(=O)(O)O)ccc5s4)C(=O)N32)C1` [Example 419, ((2-(((3S,6S,7aS,8aR,9aR)-3-(3-(4-(dimethylamino)pyridin-3-yl)azetidine-1-carbonyl)-5-oxodecahydro-1H-cyclopropa[d]pyrrolo[1,2-a]azocin-6-yl)carbamoyl)benzo[b]thiophen-5-yl)difluoromethyl)phosphonic acid]: 0.3 to 3 µM and below 0.1 µM.
Regarding `O=C(N[C@H]1C[C@@H]2C[C@@H]2C[C@H]2CC[C@@H](C(=O)N3CC(C(=O)N4CC(c5ccccn5)C4)C3)N2C1=O)c1cc2cc(C(F)(F)P(=O)(O)O)ccc2s1` [Compound 86, (difluoro(2-(((3S,6S,7aS,8aR,9aR)-5-oxo-3-(3-(3-(pyridin-2-yl)azetidine-1-carbonyl)azetidine-1-carbonyl)decahydro-1H-cyclopropa[d]pyrrolo[1,2-a]azocin-6-yl)carbamoyl)benzo[b]thiophen-5-yl)methyl)phosphonic acid], the IC50 in assay [1] is 3 to 30 µM; in assay [2], below 0.1 µM.
